Assay results taken from patent publication US20140033367A1 (priority 2010, published 2014).

Experiments:
[1] = system: protoplasts from UT leaves; assay: Protoplast culture with hormones or hormone conjugates, UT protoplasts; format: cell-based, Nicotiana tabacum; settings: for Division Efficiency / Plating Efficiency: hormone concentration in mg L^−1
Protocol: (§1) To evaluate the effects of hormones or hormone conjugates on protoplast division, six hormones or conjugate combinations (Table IV) were tested in the protoplast culture.
(§2) The protocol of the protoplast isolation was modified from the method of Rao and Prakash (1995). Leaves from BGL-1 and UT were cut into small pieces and placed on the surface of the enzyme solution with the lower surface down. Incubation was carried out in the dark at a temperature of 25° C.±1° C. for 8 h to release the protoplasts. The enzymatic cocktail contained 2% (w/v) cellulase Onozuka R-10, 0.5% (w/v) macerozyme R-10, 0.2% (w/v) dextran potassium sulfate, 5 mm CaCl2.2H2O, and 0.7 m mannitol, pH 5.8. After removing undigested materials and digested debris by filtration through a […] steel mesh, the enzymatic mixture was centrifuged at 1,000 rpm for 10 min. The protoplasts were resuspended in 5 mL of washing medium, and the process was repeated three times. Protoplasts were cultured at a density of 2×10^5 mL^−1 in 5-cm petri dishes in 3 mL of culture medium (Rao and Prakash, 1995) supplemented with different hormone or conjugate hormone regimes (Table IV). The cultures were kept at 25° C. in the dark. After 7 d, fresh medium was added to each petri dish, and the addition of medium was repeated on the 11th d of culture. […] After the development of microcalli visible to the naked eye, the cultures were transferred to light.

[2] = system: protoplasts from BGL-1 leaves; assay: Protoplast culture with hormones or hormone conjugates, BGL-1 protoplasts; format: cell-based, Nicotiana tabacum; settings: for Division Efficiency / Plating Efficiency: BGL-1 protoplasts, hormone concentration in mg L^−1
Protocol: as §1, §2

Compound | Division Efficiency [1] | Plating Efficiency [1] | Division Efficiency [2] | Plating Efficiency [2] | protoplast division and cell colony formation ([1]; zeatin-O-glucoside only) | increase of cell division efficiency of BGL-1 protoplasts compared with UT protoplasts ([2]; exogenously supplied zeatin-O-glucoside)
C/C(=C\CNc1ncnc2[nH]cnc12)CO [Zeatin (1.0), Zeatin] | 6.8 ± 0.9% | 4.6 ± 0.3% | 10.6 ± 0.8% | 6.2 ± 0.4% |  | 
Naphthylacetic acid [Naphthylacetic acid (3.0)] | 4.8 ± 0.7% | 3.3 ± 0.2% | 9.1 ± 1.8% | 4.3 ± 0.5% |  | 
Zeatin-O-glucoside [Zeatin-O-glucoside (1.0)] | 0% | 0% | 7.5 ± 1.2% | 3.7 ± 0.3% | did not divide and form cell colonies | 670%
